# Assay results: patent EP3212211B1, “MILK PROTEIN HYDROLYSATE FOR USE IN THE TREATMENT OF DIARRHOEA” (Laboratorios Ordesa, S.l., priority 2014, dated 2016)
# “And” between values parts separate entries of the source, which are not always exact repeats. Equal entries are not always repeated. No end group written: not given here.
# B1: peptide LW (dipeptide of formula (I) X1W, wherein X1 is leucine) (peptide)
# peptide: LW
# B2: peptide of SEQ ID NO: 1 (VLGPVRGPFP) (peptide)
# peptide: VLGPVRGPFP
# Assays:
# [1] = target: T1, recombinant human neprilysin (rhNeprilysin) (Homo sapiens, UniProt P08473); test: neprilysin inhibition, fluorogenic enzymatic (FRET) assay; assay type: biochemical; settings: for IC50: pure substance, 37 °C
# T1 construct: purchased R&D Systems, Inc
# Experimental: All samples are assayed in triplicate.
# rats = test: intestine motility test (activated charcoal transit); assay type: in vivo; settings: for intestinal transit in relation to RS group: product 30 minutes before charcoal, H1, H2 8.5 g/Kg, P+ (LW) 0.8 g/Kg, L 6.5 g/Kg, loperamide 2 mg/Kg p.o., read 20 minutes after charcoal
# Experimental: Intestine motility was evaluated in rats as in Example 7. The groups were coincident (n=7) except of the omission of R group and that only P^+ (LW 0.8 g/Kg) was tested. The control group included rats treated with loperamide (Lop) at a dose of 2 mg/Kg, and rats treated with the vehicle (water) and with non-hydrolysed cow milk (L group). Loperamide is an anti-diarrhoeic drug that delays intestinal transit and it acts as a positive control in this experiment.
# After 30 minutes of the administration of the products under study (P+, L, Lop, H1, H2, water) intestine transit was determined by administering 1 ml of a suspension at 1 % w/v of activated charcoal (Sigma-Aldrich®) in arabic gum (Acofar®, 5 %).
# 20 minutes later, animals were sacrificed by exsanguination and small intestine was extracted (from pilor to ileocecal). Small intestine was longitudinally disposed over a clean surface. Intestinal distance of charcoal was measured as well as the total intestine length. Results for each animal were expressed as distance of charcoal in relation to intestine length, in percentage form.
# Statistical analysis was performed by PASW®Statistics 18 software. Global comparative analysis between groups was performed with Kruskal-Wallis test and further with the non-parametric U test of Mann-Whitney. It was stablished as meaningful level a p value of p<0.05.
# female Wistar rats = test: castor oil induced acute diarrhoea in rats; assay type: in vivo; settings: p.o. 1 h before castor oil, H1, H2 8.5 g/Kg
# Experimental: The effect of the hydrolysates of the invention was tested in a model of induced acute diarrhoea. For this test, female Wistar rats were used (8 weeks old). Animals were provided with 7 weeks by Harlan (Barcelona, Spain) and they rested in the Animal Experimental Service of Facultad de […] de Barcelona (UB) under controlled temperature and humidity conditions with a light:dark cycle of 12 h:12 h with water and food ad libitum. The assay has been conducted under institutional guidelines for animal experimentation established by the Ethical Commitment of Animal Experimentation in the Universidad de Barcelona (CEEA-UB). […] Haematocrit was also determined as basal value before inducing diarrhoea. […] Although the weight was reduced during the assay, the loss was detected in all groups, and it is hypothesized due to the starving period. No differences among groups were detected in the haematocrit. […] The following variables were determined: number of defecations, type (consistency, colour, form, presence or absence of mucus), punctuation (0-4 according to a diarrhoea index), presence or absence of diarrhoea. There were also determined the diarrhoea index (ID), diarrhoea incidence, the percentage of diarrhoeic defecations, as well as the severity of diarrhoeic process. […] The percentage of diarrhoeic defecations (ID≥2) was also determined for each group. […]
# [2] = cited from earlier work
# [3] = target: Angiotensin Converting Enzymes (ACE); settings: ACE inhibition; cited from earlier work
# [4] = target: recombinant human neprilysin (human, UniProt P08473 53-750); test: cell-based or functional assay
# Chain of recombinant human neprilysin (P08473 53-750 limits assumed): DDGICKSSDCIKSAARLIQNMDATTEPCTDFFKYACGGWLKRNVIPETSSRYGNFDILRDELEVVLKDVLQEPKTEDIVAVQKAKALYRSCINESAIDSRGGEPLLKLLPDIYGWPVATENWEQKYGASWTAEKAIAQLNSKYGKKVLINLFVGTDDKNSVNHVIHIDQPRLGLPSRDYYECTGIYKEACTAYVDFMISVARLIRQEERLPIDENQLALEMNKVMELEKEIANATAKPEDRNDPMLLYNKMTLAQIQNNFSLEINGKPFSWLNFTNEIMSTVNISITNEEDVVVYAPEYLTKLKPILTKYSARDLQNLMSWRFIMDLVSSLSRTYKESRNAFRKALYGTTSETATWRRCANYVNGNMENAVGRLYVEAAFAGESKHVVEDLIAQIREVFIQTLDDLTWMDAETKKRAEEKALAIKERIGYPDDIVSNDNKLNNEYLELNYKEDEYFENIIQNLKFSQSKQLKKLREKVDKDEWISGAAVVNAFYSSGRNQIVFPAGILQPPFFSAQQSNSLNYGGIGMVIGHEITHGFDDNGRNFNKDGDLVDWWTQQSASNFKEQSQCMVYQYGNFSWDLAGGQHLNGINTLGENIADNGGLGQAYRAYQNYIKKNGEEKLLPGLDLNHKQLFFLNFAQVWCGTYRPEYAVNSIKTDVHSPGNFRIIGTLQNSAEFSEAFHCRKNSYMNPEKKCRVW
# T1 sequence (P08473 whole entry): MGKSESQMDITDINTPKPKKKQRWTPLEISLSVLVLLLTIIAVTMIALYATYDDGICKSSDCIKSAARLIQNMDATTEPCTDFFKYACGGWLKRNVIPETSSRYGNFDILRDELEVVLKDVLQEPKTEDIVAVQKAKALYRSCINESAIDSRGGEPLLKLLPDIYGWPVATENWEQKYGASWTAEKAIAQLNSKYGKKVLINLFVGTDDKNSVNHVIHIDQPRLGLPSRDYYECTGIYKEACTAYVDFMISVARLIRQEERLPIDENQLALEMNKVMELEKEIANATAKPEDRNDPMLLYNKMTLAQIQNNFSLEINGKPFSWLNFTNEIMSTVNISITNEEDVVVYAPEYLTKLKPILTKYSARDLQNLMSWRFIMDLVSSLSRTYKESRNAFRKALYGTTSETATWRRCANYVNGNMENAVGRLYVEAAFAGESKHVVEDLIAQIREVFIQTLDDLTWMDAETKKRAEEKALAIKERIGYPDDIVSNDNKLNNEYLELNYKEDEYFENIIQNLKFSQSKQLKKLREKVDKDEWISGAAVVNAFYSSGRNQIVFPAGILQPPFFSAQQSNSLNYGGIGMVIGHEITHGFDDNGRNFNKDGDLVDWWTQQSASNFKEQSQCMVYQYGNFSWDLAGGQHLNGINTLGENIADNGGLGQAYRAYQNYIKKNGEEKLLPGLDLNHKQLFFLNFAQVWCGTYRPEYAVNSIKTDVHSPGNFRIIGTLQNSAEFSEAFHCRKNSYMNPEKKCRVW
molecule,measurement,setting,value
VLGPVRGPFP [SEQ ID NO: 1],inhibition at 1260 µM,"[1]; peptide concentration 1.26 x10^-3 M, 40 minutes at 37 °C",64.8%
same,inhibition at 126 µM,"[1]; peptide concentration 1.26 x10^-4 M, 40 minutes at 37 °C",13.2%
same,inhibition at 12.6 µM,"[1]; peptide concentration 1.26 x10^-5 M, 40 minutes at 37 °C",1.49%
same,inhibition at 315 µM,"[1]; peptide concentration 3.15 x10^-4 M, 40 minutes at 37 °C",29.5%
same,inhibition at 630 µM,"[1]; peptide concentration 6.30 x10^-4 M, 40 minutes at 37 °C",46.6%
same,inhibition at 63 µM,"[1]; peptide concentration 6.30 x10^-5 M, 40 minutes at 37 °C",7.37%
same,inhibition at 90 µM,"[1]; peptide concentration 9.00 x10^-5 M, 40 minutes at 37 °C",9.41%
CN(C)C(=O)C(CCN1CCC(O)(c2ccc(Cl)cc2)CC1)(c1ccccc1)c1ccccc1 [loperamide],intestinal transit: distance of charcoal in relation to total small intestine length (D/L),"rats; 2 mg/Kg p.o., 30 minutes before charcoal, p<0.01 vs RS",37.8 ± 3.49%
same,inhibition of intestinal transit,"rats; 2 mg/Kg p.o., versus RS group, p<0.01",37%
same,intestinal transit in relation to RS group,rats,delayed intestinal transit
CC(=O)SCC(Cc1ccccc1)C(=O)NCC(=O)OCc1ccccc1 (centres unmarked) [racecadotril],severity of diarrhoeic process (AUC of the diarrhoea index),"female Wistar rats; LW 0.8 g/Kg, racecadotril 40 mg/Kg, L 6.5 g/Kg, 0-3 h and 0-8 h PI (FIG. 8), versus RD group",milder severity of diarrhoeic process than RD group
same,percentage of diarrhoeic defecations (ID≥2) in relation to the total of defecations,"female Wistar rats; R 40 mg/Kg, 0-3 h and 0-8 h PI (FIG. 9)",lower in both studied period
same,water solubility,[2],poor water solubility
VPP,IC50,[3],5 to 9 µM
CC(C)C[C@H](N)C(=O)N[C@@H](Cc1c[nH]c2ccccc12)C(=O)O [LW],IC50,[1],84.8 µM
same,IC50,[1]; dilutions in deionized water,84.8 µM
same,intestinal transit in relation to RS group,rats,does not modify intestinal transit
IPP,IC50,[3],5 to 9 µM
B1,"IC50 of neprilysin inhibition (fluorogenic enzymatic assay, FRET substrate Mca-…[Dnp]-OH)",[4],0.0269 mg/ml and 84.8 µM
B2,IC50 of neprilysin inhibition (fluorogenic enzymatic assay),[4],713 µM
